According to ChEMBL document CHEMBL2440004, “The influence of saponins on cell membrane cholesterol” (Bioorg Med Chem, 2013):
Activity calls are given as the source filed them. The calls are words filed in the database; no cut-off is given here.

Key:
ECV-304 [1] = assay: Cytotoxicity against human ECV304 cells after 72 hrs by MTT assay; type: functional, cell-based; conditions: ECV-304, 72 h
ECV-304 [2] = assay: Effect on [3H]cholesterol liberation from cell membrane of human ECV304 cells after 1 hr by liquid scintillation counting; type: functional, cell membranes
ECV-304 [3] = assay: Reduction in [3H]cholesterol uptake in human ECV304 cells after 1 hr by liquid scintillation counting; type: functional, cell-based
ECV-304 [4] = assay: Membrane toxicity against human ECV304 cells after 2 hrs by LDH release assay; type: functional, cell-based; conditions: ECV-304, 2 h
ECV-304 [5] = assay: Reduction in [3H]cholesterol content in cytoplasm membrane of human ECV304 cells at 5 uM after 1 hr by liquid scintillation counting; type: functional, cell membranes
ECV-304 [6] = assay: Reduction in [3H]cholesterol content in endosomal/lysosomal membrane of human ECV304 cells at 5 uM after 1 hr by liquid scintillation counting; type: functional, cell membranes

Row | SMILES | IC50 (ECV-304 [1]) [µM] | Activity (ECV-304 [2]) | Activity (ECV-304 [3]) | IC50 (ECV-304 [4]) [µM] | Activity (ECV-304 [5]) | Activity (ECV-304 [6])
1 | C[C@@H]1O[C@H](O[C@H]2[C@@H](OC(=O)[C@]34CCC(C)(C)C[C@H]3C3=CC[C@@H]5[C@@]6(C)CC[C@H](O[C@@H]7O[C@H](C(=O)O)[C@@H](O)[C@H](O[C@H]8OC[C@@H](O)[C@H](O)[C@H]8O)[C@H]7O[C@@H]7O[C@H](CO)[C@H](O)[C@H](O)[C@H]7O)[C@@](C)(C=O)[C@@H]6CC[C@@]5(C)[C@]3(C)C[C@H]4O)O[C@H](C)[C@H](O)[C@@H]2O)[C@H](O)[C@H](O[C@@H]2O[C@H](CO)[C@@H](O)[C@H](O)[C@H]2O)[C@H]1O[C@H]1OC[C@@H](O)[C@H](O)[C@H]1O | 8 | Active | Dose-dependent effect | – | – | –
2 | C[C@@H]1O[C@@H](O[C@H]2[C@H](O[C@H]3CC[C@@]4(C)[C@@H](CC[C@]5(C)[C@@H]4CC=C4[C@@H]6CC(C)(C)CC[C@]6(C(=O)O[C@@H]6O[C@H](CO[C@@H]7O[C@H](CO)[C@@H](O[C@@H]8O[C@@H](C)[C@H](O)[C@@H](O)[C@H]8O)[C@H](O)[C@H]7O)[C@@H](O)[C@H](O)[C@H]6O)CC[C@]45C)[C@]3(C)CO)OC[C@H](O)[C@@H]2O)[C@H](O)[C@H](O)[C@H]1O [KALOPANAXSAPONIN B] | > 164 | inactive | inactive | > 164 | – | –
3 | COC(=O)[C@@]1(C)CC[C@]2(C(=O)O[C@@H]3O[C@H](CO)[C@@H](O)[C@H](O)[C@H]3O)CC[C@]3(C)C(=CC[C@@H]4[C@@]5(C)CC[C@H](O[C@@H]6O[C@H](C(=O)O)[C@@H](O)[C@H](O)[C@H]6O)C(C)(C)[C@@H]5CC[C@]43C)[C@@H]2C1 | > 100 | inactive | inactive | – | – | –
4 | C[C@@H]1O[C@@H](O[C@H]2[C@H](O[C@H]3CC[C@@]4(C)[C@@H](CC[C@]5(C)[C@@H]4CC=C4[C@@H]6CC(C)(C)CC[C@]6(C(=O)O)CC[C@]45C)[C@]3(C)CO)OC[C@H](O)[C@@H]2O)[C@H](O)[C@H](O)[C@H]1O | – | inactive | Dose-dependent effect | – | – | –
5 | CC[C@H](CC[C@@H](C)[C@H]1CC[C@H]2[C@@H]3CC=C4C[C@@H](O)CC[C@]4(C)[C@H]3CC[C@]12C)C(C)C | – | inactive | inactive | – | – | –
6 | CC1(C)[C@@H](O[C@H]2O[C@H](C(=O)O)[C@@H](O)[C@H](O)[C@H]2O[C@@H]2O[C@H](C(=O)O)[C@@H](O)[C@H](O)[C@H]2O)CC[C@]2(C)[C@H]3C(=O)C=C4[C@@H]5C[C@@](C)(C(=O)O)CC[C@]5(C)CC[C@@]4(C)[C@]3(C)CC[C@@H]12 [GLYCYRRHIZIN] | > 119 | inactive | inactive | > 238 | – | –
7 | C[C@@H]1O[C@@H](O[C@H]2[C@@H](O)[C@H](O[C@H]3O[C@@H](C)[C@H](O[C@H]4OC[C@@H](O)[C@H](O[C@H]5OC[C@@H](O)[C@H](O)[C@H]5O)[C@H]4O)[C@@H](O)[C@H]3O)[C@H](OC(=O)[C@]34CCC(C)(C)C[C@H]3C3=CC[C@@H]5[C@@]6(C)CC[C@H](O[C@@H]7O[C@H](C(=O)O)[C@@H](O)[C@H](O[C@@H]8OC[C@H](O)[C@@H](O)[C@@H]8O)[C@H]7O[C@@H]7O[C@H](CO)[C@H](O)[C@H](O)[C@H]7O)[C@@](C)(C=O)[C@@H]6CC[C@@]5(C)[C@]3(C)CC4)O[C@H]2C)[C@@H](O)[C@H](O)[C@H]1O | 9 | Active | Dose-dependent effect | 21 | Active | inactive
8 | C[C@H]1O[C@H](O[C@H]2[C@H](O[C@H]3CC[C@]4(C)[C@H]5CC=C6[C@@H]7CC(C)(C)CC[C@]7(CO)[C@H](O)C[C@@]6(C)[C@]5(C)CC[C@H]4C3(C)C)O[C@H](C(=O)O)[C@H](O[C@H]3O[C@@H](CO[C@@H]4O[C@H](CO)[C@@H](O)[C@H](O)[C@H]4O)[C@@H](O)[C@@H](O)[C@@H]3O)[C@@H]2O)[C@@H](O)[C@@H](O)[C@@H]1O | 13 | Active | Dose-dependent effect | 58 | – | –
9 | C[C@H]1O[C@@H](O[C@H]2[C@H](O)[C@@H](O[C@H]3CC[C@]4(C)[C@H]5CC=C6[C@@H]7CC(C)(C)CC[C@]7(C(=O)O[C@@H]7O[C@H](CO[C@@H]8OC[C@](O)(CO)[C@H]8O)[C@@H](O)[C@H](O)[C@H]7O)CC[C@@]6(C)[C@]5(C)CC[C@H]4C3(C)C)O[C@@H](C(=O)O)[C@@H]2O[C@@H]2OC[C@@H](O)[C@H](O)[C@H]2O)[C@@H](O)[C@@H](O)[C@@H]1O | > 100 | inactive | inactive | – | – | –
